Earlier results, collected in patent EP4778943A1, “LONG-ACTING PARATHYROID HORMONE RECEPTOR AGONIST FUSION PROTEIN AND USE THEREOF” (Shanghai Btd-Bio Technology Co., Ltd., priority 2023, dated 2025).
Where no end group is shown, it is not given here.

Legend:
[1] = system: TPTx (parathyroidectomy) rat model; details: daily 1.2 nmol/kg (low dose) and 2.4 nmol/kg (high dose), after 4 weeks, versus model group; cited from earlier work
mice = details: continuous infusion 80 µg/kg BW/day for 2 weeks; cited from earlier work
[2] = continuous administration once a day for 6 months; cited from earlier work

TransCon PTH: long-acting PTH, generic name palopegteriparatide, trade name Yorvipath (SVSEIQLMHNLGKHLNSMERVEWLRKKLQDVHNF; also: PEG carrier attached via prodrug linker, site not given here; UniProt P01270 32-65, looked up, fragment)
bone mineral density [1]: significantly decreased

Abaloparatide
bone mineral density (mice): significant decrease

CC[C@H](C)[C@H](NC(=O)[C@H](CCC(=O)O)NC(=O)[C@H](CO)NC(=O)[C@@H](NC(=O)[C@@H](N)CO)C(C)C)C(=O)N[C@@H](CCC(N)=O)C(=O)N[C@@H](CC(C)C)C(=O)N[C@@H](CCSC)C(=O)N[C@@H](Cc1c[nH]cn1)C(=O)N[C@@H](CC(N)=O)C(=O)N[C@@H](CC(C)C)C(=O)NCC(=O)N[C@@H](CCCCN)C(=O)N[C@@H](Cc1c[nH]cn1)C(=O)N[C@@H](CC(C)C)C(=O)N[C@@H](CC(N)=O)C(=O)N[C@@H](CO)C(=O)N[C@@H](CCSC)C(=O)N[C@@H](CCC(=O)O)C(=O)N[C@@H](CCCNC(=N)N)C(=O)N[C@H](C(=O)N[C@@H](CCC(=O)O)C(=O)N[C@@H](Cc1c[nH]c2ccccc12)C(=O)N[C@@H](CC(C)C)C(=O)N[C@@H](CCCNC(=N)N)C(=O)N[C@@H](CCCCN)C(=O)N[C@@H](CCCCN)C(=O)N[C@@H](CC(C)C)C(=O)N[C@@H](CCC(N)=O)C(=O)N[C@@H](CC(=O)O)C(=O)N[C@H](C(=O)N[C@@H](Cc1c[nH]cn1)C(=O)N[C@@H](CC(N)=O)C(=O)N[C@@H](Cc1ccccc1)C(=O)O)C(C)C)C(C)C [teriparatide]
bone mineral density of L2-L4, increase [2]: about 5%
bone mineral density (mice): significant decrease
